Data taken from US20200131669A1, “CYCLIC PEPTIDE COMPOUND HAVING HIGH MEMBRANE PERMEABILITY, AND LIBRARY CONTAINING SAME” (Chugai Seiyaku Kabushiki Kaisha, priority 2017, published 2020).
Starred links: 1 amine or outer side, 2 acyl side, 3 side chain; linkers in the order of their positions; H or OH if unused. Positions of bridges follow the written chain, without caps; N, C: chain ends. Non-standard residues stand in square brackets, D forms with d. Residues, ends and D or L forms follow the SMILES beside them. *: point of attachment. NMeAla(4-thiazolyl) = CN[C@@H](Cc1cscn1)C(=O)O; Ala(4-thiazolyl) = N[C@@H](Cc1cscn1)C(=O)O; NMeF = CN[C@@H](Cc1ccccc1)C(=O)O; NMeβAla = CN(CCC(=O)[*:2])[*:1]; NMeL = CN[C@@H](CC(C)C)C(=O)O; NMeV = CN[C@H](C(=O)O)C(C)C; NMeA = CN[C@@H](C)C(=O)O; Piperidide = C1CCN(*)CC1; Sar = CNCC(=O)O; tBu = CC(C)(C)*

Assay: Caco-2 membrane permeability, improved method as used in the following Examples (96-well, 20 to 24 h preincubation)
Type: in vitro ADME
Conditions: human, Caco-2, Caco-2 (cm/sec)
Procedure, shortened: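 Caco-2 monolayers were grown three weeks and preincubated 20–24 h at 37 °C with compound in DMEM+FaSSIF (1% DMSO) apically. The assay then used compound in FaSSIF/HBSS (1% DMSO, pH 6.0) apically and HBSS with 4% BSA (pH 7.4) basally. Basal samples were taken at 180 min for LC/MS, and Papp (cm/sec) was calculated.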

In order of rising Papp A→B at 180 min:
1. CC(C)C[C@@H]1NC(=O)[C@H](Cc2ccccc2)N(C)C(=O)[C@H](CC(C)C)N(C)C(=O)[C@H](Cc2ccccc2)NC(=O)[C@@H](C)NC(=O)C[C@@H](C(=O)N2CCCCC2)NC(=O)[C@H](Cc2ccccc2)N(C)C(=O)CN(C)C(=O)[C@H](Cc2ccccc2)NC(=O)[C@H](CC(C)C)N(C)C(=O)[C@H]([C@@H](C)O)NC1=O [pd244] ([dA]F[NMeL][NMeF]LT[NMeL]F[Sar][NMeF]D-Piperidide; lactam N-11)  0.045 ×10⁻⁶ cm/s
2. CC(C)C[C@@H]1NC(=O)[C@H](Cc2ccccc2)N(C)C(=O)[C@H](COC(C)(C)C)NC(=O)[C@H](Cc2ccccc2)N(C)C(=O)[C@H](Cc2ccccc2)N(C)C(=O)[C@H](CC(C)C)N(C)C(=O)[C@@H](CC(C)C)NC(=O)C[C@@H](C(=O)N2CCCCC2)NC(=O)[C@H](Cc2ccccc2)N(C)C(=O)[C@H]([C@@H](C)O)NC(=O)[C@H](CC(C)C)N(C)C1=O [pd243] ([dL][NMeL][NMeF][NMeF]S(tBu)[NMeF]L[NMeL]T[NMeF]D-Piperidide; lactam N-11)  0.057 ×10⁻⁶ cm/s
3. CC(C)C[C@H]1C(=O)N(C)[C@@H](Cc2ccccc2)C(=O)N(C)[C@@H](CC(C)C)C(=O)N[C@H](C(=O)N(C)[C@@H](Cc2ccccc2)C(=O)N[C@@H](Cc2ccccc2)C(=O)N2CCCCC2)CC(=O)N[C@@H](C(C)C)C(=O)N[C@@H](C)C(=O)N[C@@H]([C@@H](C)O)C(=O)N(C)[C@@H](C)C(=O)N[C@@H](Cc2ccccc2)C(=O)N1C [pd241] (VAT[NMeA]F[NMeL][NMeF][NMeL]D[NMeF]F-Piperidide; lactam N-9)  0.058 ×10⁻⁶ cm/s
4. CC[C@H](C)[C@@H]1NC(=O)[C@H](Cc2ccccc2)N(C)C(=O)[C@H]([C@@H](C)O)NC(=O)[C@@H](C)NC(=O)C[C@@H](C(=O)N(C)[C@@H](Cc2ccccc2)C(=O)N(C)[C@@H](Cc2ccccc2)C(=O)N[C@@H](C)C(=O)N2CCCCC2)NC(=O)[C@H](CC(C)C)N(C)C(=O)[C@H](CC(C)C)N(C)C(=O)[C@H](Cc2ccccc2)N(C)C(=O)[C@H](CC(C)C)N(C)C(=O)[C@H](C)N(C)C1=O [pd242] ([dA]T[NMeF]I[NMeA][NMeL][NMeF][NMeL][NMeL]D[NMeF][NMeF]A-Piperidide; lactam N-10)  0.058 ×10⁻⁶ cm/s
5. CC[C@H](C)[C@@H]1NC(=O)[C@H](Cc2ccccc2)N(C)C(=O)[C@H](C)N(C)C(=O)C[C@@H](C(=O)N(C)[C@@H](Cc2ccccc2)C(=O)N(C)[C@@H](Cc2ccccc2)C(=O)N[C@@H](C)C(=O)N2CCCCC2)NC(=O)[C@H](CC(C)C)N(C)C(=O)[C@H](Cc2ccccc2)N(C)C(=O)[C@H]([C@@H](C)O)NC(=O)[C@H](CC(C)C)N(C)C(=O)[C@H](CC(C)C)N(C)C(=O)[C@H](C)N(C)C1=O [pd240] ([NMeA][NMeF]I[NMeA][NMeL][NMeL]T[NMeF][NMeL]D[NMeF][NMeF]A-Piperidide; lactam N-10)  0.06 ×10⁻⁶ cm/s
6. CC[C@H](C)[C@@H]1NC(=O)[C@H](Cc2ccccc2)N(C)C(=O)[C@H](C)N(C)C(=O)[C@H](CC(C)C)N(C)C(=O)[C@H](Cc2ccccc2)N(C)C(=O)CCN(C)C(=O)C[C@@H](C(=O)N(C)[C@@H](Cc2ccccc2)C(=O)N(C)[C@@H](Cc2ccccc2)C(=O)N[C@@H](C)C(=O)N2CCCCC2)NC(=O)[C@H]([C@@H](C)O)NC(=O)[C@H](CC(C)C)N(C)C(=O)[C@H](CC(C)C)N(C)C1=O [pd239] ([NMeβAla][NMeF][NMeL][NMeA][NMeF]I[NMeL][NMeL]TD[NMeF][NMeF]A-Piperidide; lactam N-10)  0.065 ×10⁻⁶ cm/s
7. CC(C)C[C@@H]1NC(=O)[C@H](Cc2ccccc2)N(C)C(=O)[C@H](C)N(C)C(=O)C[C@@H](C(=O)N2CCCCC2)NC(=O)[C@H](CC(C)C)N(C)C(=O)[C@H](Cc2ccccc2)N(C)C(=O)[C@H](Cc2ccccc2)NC(=O)[C@H](Cc2cscn2)N(C)C(=O)[C@H](C)N(C)C(=O)[C@H](CC(C)C)N(C)C(=O)[C@H]([C@@H](C)O)NC1=O [pd238] ([NMeA][NMeF]LT[NMeL][NMeA][NMeAla(4-thiazolyl)]F[NMeF][NMeL]D-Piperidide; lactam N-11)  0.088 ×10⁻⁶ cm/s
8. CC(C)C[C@H]1C(=O)N[C@@H](COC(C)(C)C)C(=O)N[C@@H]([C@@H](C)O)C(=O)N(C)[C@@H](Cc2ccccc2)C(=O)N[C@H](C(=O)N2CCCCC2)CC(=O)N[C@@H](C)C(=O)N(C)[C@@H](Cc2ccccc2)C(=O)N(C)[C@@H](C)C(=O)N(C)[C@@H](Cc2ccccc2)C(=O)N(C)[C@@H](CC(C)C)C(=O)N[C@@H](Cc2ccccc2)C(=O)N1C [pd237] (A[NMeF][NMeA][NMeF][NMeL]F[NMeL]S(tBu)T[NMeF]D-Piperidide; lactam N-11)  0.089 ×10⁻⁶ cm/s
9. CC(C)C[C@@H]1NC(=O)[C@H](CC(C)C)N(C)C(=O)[C@H](CC(C)C)N(C)C(=O)CNC(=O)[C@H](Cc2ccccc2)N(C)C(=O)[C@H](Cc2cscn2)NC(=O)[C@H](CC(C)C)N(C)C(=O)[C@H](Cc2ccccc2)NC(=O)[C@H](C)NC(=O)C[C@@H](C(=O)N(C)[C@@H](Cc2ccccc2)C(=O)N[C@@H](C)C(=O)N2CCCCC2)NC1=O [pd235] (AF[NMeL][Ala(4-thiazolyl)][NMeF]G[NMeL][NMeL]LD[NMeF]A-Piperidide; lactam N-10)  0.1 ×10⁻⁶ cm/s
10. CC(C)C[C@@H]1NC(=O)[C@H](CC(C)C)N(C)C(=O)[C@@H](C)NC(=O)C[C@@H](C(=O)N2CCCCC2)NC(=O)[C@H](Cc2ccccc2)N(C)C(=O)[C@H](Cc2ccccc2)N(C)C(=O)[C@H](C)N(C)C(=O)[C@H]([C@@H](C)O)NC(=O)[C@H](Cc2ccccc2)N(C)C(=O)[C@H](COC(C)(C)C)NC(=O)[C@H](Cc2ccccc2)N(C)C1=O [pd234] ([dA][NMeL]L[NMeF]S(tBu)[NMeF]T[NMeA][NMeF][NMeF]D-Piperidide; lactam N-11)  0.15 ×10⁻⁶ cm/s
11. CC(C)C[C@H]1C(=O)N(C)[C@@H](Cc2ccccc2)C(=O)N(C)[C@@H](Cc2ccccc2)C(=O)N[C@@H]([C@@H](C)O)C(=O)N(C)[C@@H](C)C(=O)N(C)[C@@H](Cc2ccccc2)C(=O)N[C@H](C(=O)N2CCCCC2)CC(=O)N(C)[C@@H](C)C(=O)N(C)[C@@H](Cc2ccccc2)C(=O)N(C)[C@@H](CC(C)C)C(=O)N[C@@H](C(C)C)C(=O)N1C [pd233] ([NMeA][NMeF][NMeL]V[NMeL][NMeF][NMeF]T[NMeA][NMeF]D-Piperidide; lactam N-11)  0.17 ×10⁻⁶ cm/s
12. CC(C)C[C@H]1C(=O)N(C)[C@@H](Cc2ccccc2)C(=O)N(C)[C@@H](Cc2ccccc2)C(=O)N[C@@H]([C@@H](C)O)C(=O)N(C)[C@@H](C)C(=O)N(C)[C@@H](Cc2ccccc2)C(=O)N[C@H](C(=O)N2CCCCC2)CC(=O)N(C)[C@@H](C)C(=O)N(C)[C@@H](CC(C)C)C(=O)N(C)[C@@H](Cc2ccccc2)C(=O)N[C@@H](C)C(=O)N1C [pd232] ([NMeA][NMeL][NMeF]A[NMeL][NMeF][NMeF]T[NMeA][NMeF]D-Piperidide; lactam N-11)  0.19 ×10⁻⁶ cm/s
13. CC(C)C[C@@H]1NC(=O)[C@H](Cc2ccccc2)N(C)C(=O)[C@H]([C@@H](C)O)NC(=O)[C@H](Cc2ccccc2)N(C)C(=O)CN(C)C(=O)[C@H](Cc2ccccc2)NC(=O)[C@H](CC(C)C)N(C)C(=O)[C@H](CC(C)C)NC(=O)[C@H](Cc2ccccc2)N(C)C(=O)[C@H](C)N(C)C(=O)C[C@@H](C(=O)N2CCCCC2)NC1=O [pd231] ([NMeA][NMeF]L[NMeL]F[Sar][NMeF]T[NMeF]LD-Piperidide; lactam N-11)  0.21 ×10⁻⁶ cm/s
14. CC(C)C[C@@H]1NC(=O)[C@H](Cc2ccccc2)N(C)C(=O)[C@H]([C@@H](C)O)NC(=O)[C@H](Cc2ccccc2)NC(=O)[C@H](Cc2ccccc2)N(C)C(=O)C[C@@H](C(=O)N2CCCCC2)NC(=O)[C@H](C)N(C)C(=O)[C@H](CC(C)C)N(C)C(=O)CN(C)C(=O)[C@H](CC(C)C)N(C)C(=O)[C@H](Cc2ccccc2)N(C)C1=O [pd230] ([NMeF]FT[NMeF]L[NMeF][NMeL][Sar][NMeL][NMeA]D-Piperidide; lactam N-11)  0.25 ×10⁻⁶ cm/s
15. CC(C)C[C@@H]1NC(=O)[C@H](Cc2ccccc2)N(C)C(=O)[C@H](C(C)C)N(C)C(=O)C[C@@H](C(=O)N2CCCCC2)NC(=O)[C@H]([C@@H](C)O)NC(=O)[C@H](Cc2ccccc2)N(C)C(=O)[C@H](Cc2ccccc2)NC(=O)[C@H](Cc2ccccc2)N(C)C(=O)CN(C)C(=O)[C@H](C)N(C)C(=O)[C@H](CC(C)C)N(C)C1=O [pd229] ([NMeV][NMeF]L[NMeL][NMeA][Sar][NMeF]F[NMeF]TD-Piperidide; lactam N-11)  0.41 ×10⁻⁶ cm/s
16. CC(C)C[C@@H]1NC(=O)[C@H](CC(C)C)N(C)C(=O)C[C@@H](C(=O)N2CCCCC2)NC(=O)[C@H](CC(C)C)N(C)C(=O)CN(C)C(=O)[C@H]([C@@H](C)O)NC(=O)[C@H](Cc2cscn2)N(C)C(=O)[C@H](Cc2ccccc2)N(C)C(=O)[C@H](Cc2ccccc2)NC(=O)[C@H](Cc2ccccc2)N(C)C(=O)[C@H](CC(C)C)N(C)C1=O [pd228] ([NMeL]L[NMeL][NMeF]F[NMeF][NMeAla(4-thiazolyl)]T[Sar][NMeL]D-Piperidide; lactam N-11)  0.58 ×10⁻⁶ cm/s
17. CC(C)C[C@@H]1NC(=O)[C@H](Cc2ccccc2)N(C)C(=O)C[C@@H](C(=O)N2CCCCC2)NC(=O)[C@H](CC(C)C)N(C)C(=O)CN(C)C(=O)[C@H]([C@@H](C)O)NC(=O)[C@H](Cc2ccccc2)N(C)C(=O)[C@H](Cc2ccccc2)N(C)C(=O)[C@H](CC(C)C)NC(=O)[C@H](Cc2ccccc2)N(C)C(=O)[C@H](CC(C)C)N(C)C1=O [pd227] ([NMeF]L[NMeL][NMeF]L[NMeF][NMeF]T[Sar][NMeL]D-Piperidide; lactam N-11)  0.61 ×10⁻⁶ cm/s

Same assay, conditions: human, Caco-2; Papp; Table 24, sequences where ARC = 4; read-out: Caco-2

In the case of CC(C)C[C@@H]1NC(=O)[C@H](C)N(C)C(=O)C[C@@H](C(=O)N2CCCCC2)NC(=O)[C@H](CC(C)C)N(C)C(=O)CN(C)C(=O)[C@H]([C@@H](C)O)NC(=O)[C@H](Cc2cscn2)N(C)C(=O)[C@H](Cc2ccccc2)N(C)C(=O)[C@H](Cc2ccccc2)NC(=O)[C@H](Cc2ccccc2)NC(=O)[C@H](CC(C)C)N(C)C1=O [pd236] ([NMeA]L[NMeL]FF[NMeF][NMeAla(4-thiazolyl)]T[Sar][NMeL]D-Piperidide; lactam N-11), the Papp A→B at 180 min was 0.096 ×10⁻⁶ cm/s.
